# Assay results taken from PubChem BioAssay (NCI).
#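 Following 48 hours of exposure in 96-well plates, responses at five concentrations were used to interpolate endpoints linearly. TGI: total growth inhibition.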
# Experiments:
# Assay in all cases: inhibition of tumour cell growth, NCI panel, 48 h
# MDA-MB-231 breast = system: MDA-MB-231 breast
# HCT-15 colon = system: HCT-15 colon
# CCRF-CEM leukemia = system: CCRF-CEM leukemia
# OVCAR-5 ovarian = system: OVCAR-5 ovarian
# SN12C renal = system: SN12C renal
# NCI-H226 lung = system: NCI-H226 lung
# BT-549 breast = system: BT-549 breast
# RXF 393 renal = system: RXF 393 renal
# NCI/ADR-RES ovarian = system: NCI/ADR-RES ovarian
# HL-60(TB) leukemia = system: HL-60(TB) leukemia
Structure (SMILES),TGI (MDA-MB-231 breast) [µM],TGI (HCT-15 colon) [µM],TGI (CCRF-CEM leukemia) [µM],TGI (OVCAR-5 ovarian) [µM],TGI (SN12C renal) [µM],TGI (NCI-H226 lung) [µM],TGI (BT-549 breast) [µM],TGI (RXF 393 renal) [µM],TGI (NCI/ADR-RES ovarian) [µM],TGI (HL-60(TB) leukemia) [µM]
COc1ccc(C2=NNC(=O)c3ccccc3N2c2nc(-c3cccs3)nc3ccc(Br)cc23)cc1,> 100,> 100,> 100,> 100,> 100,73.7,> 100,> 100,62.4,> 100
CCCC(=O)OC1CC(n2cc(F)c(=O)[nH]c2=O)OC1CO (stereo not given),> 10,> 10,> 10,> 10,> 10,> 10,> 10,> 10,> 10,> 10
OC(O)(C(F)(F)F)C(F)(F)F,> 100,> 100,> 100,> 100,> 100,> 100,> 100,> 100,> 100,> 100
CSc1ccccc1P(CCP(c1ccccc1SC)c1ccccc1SC)c1ccccc1SC,> 100,> 100,29.6,> 100,> 100,> 45.2,> 100,> 84.9,> 100,16.3
COC(=O)C1=C(C)NC2(C)OC(C)(O)C(C(C)=O)C12C(C)=O (stereo not given),> 100,> 100,> 100,> 100,> 100,53.1,> 100,> 100,> 100,> 100
COc1cc(S(=O)(=O)N/N=C/c2cc(Br)c(O)c(OC)c2)c(OC)cc1NC(C)=O,> 100,> 100,56.5,> 100,> 100,> 100,> 100,> 100,> 100,58
Cc1ccc(S(=O)(=O)N2CCN(CCO)CCN(S(=O)(=O)c3ccc(C)cc3)CCN(CCO)CC2)cc1,48.4,37.2,54,> 100,> 100,> 100,> 100,82.1,38.3,37.3
CC(C)CC(NC(=O)C(COc1ccc([N+](=O)[O-])cc1)Cc1ccccc1)C(=O)Nc1ccccc1 (stereo not given),80.3,> 100,> 100,> 100,> 100,16.1,29.7,41.6,43.3,> 100
COc1ccc(C(C)NNC(=O)c2ccncc2)cc1F (stereo not given),> 100,> 100,> 100,> 100,> 100,> 100,> 100,> 100,> 100,> 100
c1ccc2c(c1)c1c3n2-c2cc(on2)C3CCC1 (stereo not given),> 100,> 100,> 100,> 100,> 100,> 100,> 100,> 100,> 100,> 100
C=C1C(=O)O[C@H]2C3C(=C(C)CC[C@@H]12)C(=O)[C@@H]1OC31C (stereo not given in full),8.08,3.16,1.31,23.3,3.18,20.5,4.6,2.99,10.7,0.469
O=c1/c(=C/c2ccc(-c3ccc(Cl)cc3Cl)o2)sc2n1[C@@H](c1ccc3c(c1)OCO3)C=C(c1cc(F)c(Cl)cc1Cl)N=2,57.2,> 100,> 100,> 100,> 100,> 100,> 100,> 100,> 100,> 100
COC(=O)C[C@H](CCSC)NC(=O)C[C@H](CCSC)NC(=O)C[C@H](CCSC)NC(=O)OC(C)(C)C,> 100,> 100,> 100,> 100,> 100,> 100,> 100,33.6,> 100,> 100
O=S(=O)(O)c1ccc(Nc2ccnc3cc(Cl)ccc23)cc1,> 100,> 100,> 100,> 100,> 100,> 100,> 100,> 100,> 100,> 100
CCOC(=O)C1=C(C)N(c2ccc(C)cc2)C2(O)C=CC(=O)C3=C(O)c4ccccc4C(=O)C312 (stereo not given),> 100,> 100,> 100,> 100,> 100,> 100,49.3,62.1,> 100,0.039
O=c1oc2ccccc2c(O)c1Cc1cccc(Cc2c(O)c3ccccc3oc2=O)c1,> 100,> 100,> 100,> 100,> 100,> 100,> 100,> 100,> 100,> 100
Cc1nnc2sc(-c3ccc([N+](=O)[O-])o3)nn12,29.2,18.2,> 100,36.7,29.5,34.5,22.5,25.9,39,8.58
COc1cc2c(cc1O)CC[C@@H]1C2CC[C@@]2(C)C1CC[C@@H]2O (stereo not given in full),> 87.1,49,22.3,> 100,> 82,> 100,> 100,57.6,2.73,8.18
